{"source": "paper PMC7177456", "about": "“A Peptidomimetic Fluorescent Probe to Detect the Trypsin β2 Subunit of the Human 20S Proteasome” (International Journal of Molecular Sciences, 2020)", "key": {"[1]": {"test_system": "20S proteasome", "assay": "Library deconvolution, cleavage rates of sublibraries and individual compounds", "format": "biochemical, human", "conditions": "P4 Dap(O2(Cbz)), P3 Dap(GO1); 3.4 × 10^−6 M; 20S proteasome 1.46 × 10^−9 M; pH 8.2, 37 °C", "method": "Deconvolution of the synthesized library with a fixed Arg in position P1 and diversified by DAPEG residues at positions P2–P4 was performed in a solution using a mix and split approach. […] Since the proteasome structure has three pairs of catalytically active subunits with distinct specificities (chymotrypsin, trypsin, and caspase), we repeated these experiments in the presence of a trypsin subunit inhibitor (PR671A). In effect, a 96% reduction in activity was recorded. This observation allowed us to proceed with screening at position P3 (Figure 2A).\nFigure 2 Deconvolution of the library (at an average concentration of 3.4 × 10^−6 M) with the general formula ABZ–X4–X3–X2–Arg–ANB–NH2 against the 20S proteasome (1.46 × 10^−9 M). (A) Cleavage rates of individual sublibraries recorded for position X4; (B) Cleavage rates of individual sublibraries recorded for position X3; (C) Cleavage rates of individual compounds modified in position X2. […]\nFor enzymatic studies, the human 20S proteasome, 26S proteasome, and 20S immunoproteasome were purchased from Boston Biochem (Cambridge, MA, USA). […] The volume composition of each well of the 96-well plate was: 20 µL library, 160 µL assay buffer, and 20 µL 20S proteasome solution at a concentration of 1.07 × 10^−9 M. Absorbance or fluorescence measurements were performed on a FluoroStar OMEGA multimode microplate reader (BMG, Ortenberg, Germany). […]"}, "[2]": {"test_system": "20S proteasome", "assay": "Proteolytic cleavage pattern by RP-HPLC", "format": "biochemical, human", "conditions": "substrate 3.1 × 10^−6 M, 20S proteasome 1.07 × 10^−9 M, one hour", "method": "For each sample of the diluted substrate (concentration; 3.1 × 10^−6 M), an appropriate amount of proteasome (1.07 × 10^−9 M) was added, and the solution was incubated for 5, 30, and 60 min. The proteolytic reaction was monitored by RP-HPLC."}, "[3]": {"test_system": "20S proteasome", "assay": "Inhibitory studies: cleavage of substrate 1 in the presence of selective proteasome inhibitors", "format": "biochemical, human", "conditions": "deduced from cleavage with selective inhibitors", "excerpt": "A black, 96-well flat-bottomed microplate (Brand GMBH, Wertheim, Germany) was used for the inhibitory studies. Two inhibitors, carfilzomib (a selective inhibitor of the β5 subunit of the 20S proteasome) and epoxomicin, were purchased from Merck (Darmstadt, Germany) and used at final concentrations of 1.15 × 10^−6 M and 5.0 × 10^−5 M, respectively. The β2 inhibitor, PR671A [20], and the β1 inhibitor, NCOO1 [21], were used at a concentration of 5 × 10^−6 M. These reagents were kindly provided by Alexei Kisselev from Dartmouth University (Dartmouth, NH, USA). The concentration of 20S proteasome was 1.07 × 10^−9 M. The buffered proteasome solution was mixed with 10 µL inhibitor solution. This mixture was incubated for 30 min at 37 °C. After this period, the substrate solution was added at a concentration of 1.34 × 10^−5 M, and the fluorescence was measured over time at 320 nm excitation and 450 nm emission wavelengths. All measurements were performed in triplicate."}, "[4]": {"test_system": "20S proteasome in human urine", "assay": "Proteasome activity in human urine with substrate 1", "format": "biochemical", "conditions": "for proteasome activity (cleavage of substrate 1): 80 µL urine, substrate 1.34 × 10^−5 M, 320/450 nm, Mann–Whitney p < 0.0001", "method": "All urine samples were purchased from St. Vincent de Paul Hospital in Gdynia, Poland (contract no. JN/777/R720/08.11.17). All methods and procedures were performed in accordance with this contract agreement. Participants were informed about the study and sample collection, and their written consent was collected. […] Therefore, the samples were considered unnamed. The samples of human urine were taken during mid-urination and kept for 48 h at −80 °C until required. All samples used for assay development were taken from healthy volunteers (n = 5), and oncological samples were obtained from patients diagnosed with bladder cancer (n = 8).\nThe urine samples were thawed at room temperature, gently vortexed, and briefly centrifuged (<20 s) to collect the sample at the bottom of the tube. A total of 80 μL urine was transferred to a 96-well microplate and mixed with assay buffer and substrate 1. Proteasome activity was assayed as described earlier. Briefly, 80 µL of urine from healthy volunteers, urine from patients diagnosed with bladder cancer, and bladder cancer urine supplemented by the inhibitor PR671A were mixed with 200 µL of the assayed buffer and 20 µL of the substrate at a concentration of 1.34 × 10^−5 M, and the fluorescence was quantified. An excitation wavelength equal to 320 nm and an emission wavelength of 450 nm were used.\nThe resulting data were analyzed using Graphpad Prism version 6.0 software (GraphPad Software Inc., La Jolla, CA, USA). All fluorescent measurements were performed in triplicate and represented by the mean ± standard deviation (SD). A two-tailed Mann–Whitney test was applied for the statistical analysis (p < 0.0001)."}}}
{"substance": "ABZ–Dap(O2(Cbz))–Dap(GO1)–Dap(O2(Cbz))–Arg–ANB–NH2 [substrate 1]", "values": [{"measurement": "cleavage rate, position P2 (X2), individual compounds", "setting": "[1]", "result": "significantly higher compared to the rates of the other tested systems"}, {"measurement": "cleavage products", "setting": "[2]", "result": "two products with retention times corresponding to ABZ–Dap(O2(Cbz))–Dap(GO1)–Dap(O2(Cbz))–Arg–OH (2) (tR = 18.24) and ABZ–NH2 (tR = 7.89)"}, {"measurement": "sub-site selectivity of hydrolysis", "setting": "[3]", "result": "hydrolyzed exclusively by the β2 sub-site"}, {"measurement": "fluorescence (in words)", "setting": "[4]; bladder cancer urine samples, n = 8", "result": "fluorescence increase that was observed in all samples"}, {"measurement": "proteasome activity (cleavage of substrate 1)", "setting": "[4]; bladder cancer urine, n = 8, mean ± SD", "result": "48.4 ± 28.1"}, {"measurement": "fluorescence (in words)", "setting": "[4]; healthy urine samples, n = 5", "result": "insignificant background levels of fluorescence"}, {"measurement": "proteasome activity (cleavage of substrate 1)", "setting": "[4]; healthy urine, n = 5, mean ± SD", "result": "0.1 ± 0.04"}]}
